According to paper PMC3182149 (Phytochemistry letters, 2011):

Columns and labels:
[1] = system: panel of three human cancer cells; experiment: Cytotoxicity assay, panel of three human cancer cells; format: cell-based; details: range over the panel of three human cancer cells
[2] = system: LNCaP hormone-dependent prostate cancer cells; experiment: Cytotoxicity assay, LNCaP hormone-dependent prostate cancer cells; format: cell-based, human
[3] = system: Lu1 human lung cancer cells; experiment: Cytotoxicity assay, Lu1 human lung cancer cells; format: cell-based
[4] = system: MCF-7 human breast cancer cells; experiment: Cytotoxicity assay, MCF-7 human breast cancer cell line; format: cell-based
NF-κB p65 = NF-κB p65 (Homo sapiens, UniProt Q04206); experiment: Enzyme-based ELISA NF-κB p65 assay; format: biochemical; details: inhibition of binding of NF-κB to DNA; Hela nuclear extract
Sequence of NF-κB p65 (Q04206 whole entry): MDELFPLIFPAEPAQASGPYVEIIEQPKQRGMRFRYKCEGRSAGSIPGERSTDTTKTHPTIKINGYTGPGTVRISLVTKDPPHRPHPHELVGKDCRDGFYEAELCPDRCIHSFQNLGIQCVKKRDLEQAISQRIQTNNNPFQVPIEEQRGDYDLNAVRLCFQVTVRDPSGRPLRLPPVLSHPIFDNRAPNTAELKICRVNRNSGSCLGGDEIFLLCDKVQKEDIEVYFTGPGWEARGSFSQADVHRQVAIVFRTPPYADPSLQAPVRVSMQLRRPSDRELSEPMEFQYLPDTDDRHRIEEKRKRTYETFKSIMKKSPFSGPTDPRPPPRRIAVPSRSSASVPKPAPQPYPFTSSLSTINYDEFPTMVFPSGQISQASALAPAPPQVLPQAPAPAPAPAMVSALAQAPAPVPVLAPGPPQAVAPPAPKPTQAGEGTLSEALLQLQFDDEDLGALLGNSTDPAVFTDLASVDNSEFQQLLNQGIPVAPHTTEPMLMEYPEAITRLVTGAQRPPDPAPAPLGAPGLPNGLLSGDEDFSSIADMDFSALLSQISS
Sequence of NF-κB p65 (P19838 1-433 partner limits assumed): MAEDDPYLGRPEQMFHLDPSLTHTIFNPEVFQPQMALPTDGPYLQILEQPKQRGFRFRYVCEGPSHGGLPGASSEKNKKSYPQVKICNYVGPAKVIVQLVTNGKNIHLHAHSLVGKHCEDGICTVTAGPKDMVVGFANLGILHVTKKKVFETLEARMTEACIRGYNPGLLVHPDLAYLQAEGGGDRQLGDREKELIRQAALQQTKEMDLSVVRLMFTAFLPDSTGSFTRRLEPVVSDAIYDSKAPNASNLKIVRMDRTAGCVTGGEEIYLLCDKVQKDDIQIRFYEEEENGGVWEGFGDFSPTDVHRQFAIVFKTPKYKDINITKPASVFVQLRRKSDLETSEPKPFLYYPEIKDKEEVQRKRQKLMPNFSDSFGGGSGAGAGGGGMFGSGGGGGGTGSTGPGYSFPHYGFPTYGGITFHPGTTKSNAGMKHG

Row | ED50 (NF-κB p65) [µM] | Molecule | ED50 values [1] [µM] | ED50 [2] [µM] | ED50 [3] [µM] | ED50 [4] [µM]
1 | – | COc1ccc([C@@H]2CC(=O)c3c(O)cc(OC)cc3O2)cc1 [Compound 3, (S)-5-hydroxy-7,4′-dimethoxyflavanone] | 1.1 to 6.7 | 6.7 | 4.7 | 1.1
2 | 10.3 | methyl 3,4,5-O-tricaffeoyl quinate [Compound 4] | – | – | – | –
